Results reported in PubChem BioAssay AID248 (DTP/NCI, 2004).
Several values for one entry are separate records, joined by “and”; a condition that tells them apart may be missing. Equal entries are not always repeated. Inconclusive results and toxic doses are left out.

Test system: L1210 leukemia ip in BDF1 mice, survival T/C
Assay: NCI In Vivo Anticancer Drug Screen. Data for tumor model L1210 Leukemia (intraperitoneal) in B6D2F1 (BDF1) mice
Details: endpoint: mean survival time, higher = longer survival
Procedure, shortened: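 In this screen, tumor-bearing mice given compound are compared to those given vehicle, and their survival values are reported as a treated-to-control quotient.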

`CC(=O)NC1=C(N2CC2)C(=O)C(NC(C)=O)=C(N2CC2)C1=O` was tested, and the T/C (dose: 0.01 mg/kg/injection, schedule: Q01DX Z (ip), vehicle: alkali diluted with saline) was 96 % of control, the T/C (dose: 0.03 mg/kg/injection, schedule: Q01DX Z (ip), vehicle: alkali diluted with saline) was 96 % of control and the T/C (dose: 0.06 mg/kg/injection, schedule: Q01DX006 (iv), vehicle: saline) was 113 % of control. For the same molecule, the T/C (dose: 0.06 mg/kg/injection, schedule: Q01DX Z (ip), vehicle: alkali diluted with saline) was 97 % of control and 105 % of control, the T/C (dose: 0.06 mg/kg/injection, schedule: Q01DX Z (ip), vehicle: saline) was 113 % of control and the T/C (dose: 0.12 mg/kg/injection, schedule: Q01DX Z (ip), vehicle: alkali diluted with saline) was 100 % of control and 102 % of control. The T/C (dose: 0.12 mg/kg/injection, schedule: Q01DX Z (oral), vehicle: carboxymethylcellulose (CMC)) was 97 % of control, the T/C (dose: 0.13 mg/kg/injection, schedule: Q01DX006 (iv), vehicle: saline) was 118 % of control and the T/C (dose: 0.24 mg/kg/injection, schedule: Q01DX Z (ip), vehicle: alkali diluted with saline) was 109 % of control. The T/C (dose: 0.25 mg/kg/injection, schedule: Q01DX006 (iv), vehicle: saline) was 108 % of control, the T/C (dose: 0.25 mg/kg/injection, schedule: Q01DX Z (im), vehicle: saline) was 121 % of control and the T/C (dose: 0.25 mg/kg/injection, schedule: Q01DX Z (ip), vehicle: saline) was 159 % of control. For the same molecule, the T/C (dose: 0.25 mg/kg/injection, schedule: Q01DX Z (oral), vehicle: carboxymethylcellulose (CMC)) was 101 % of control, the T/C (dose: 0.25 mg/kg/injection, schedule: Q01DX Z (sc), vehicle: saline) was 102 % of control and the T/C (dose: 0.38 mg/kg/injection, schedule: Q03DX005 (oral), vehicle: saline) was 111 % of control. The T/C (dose: 0.38 mg/kg/injection, schedule: Q03DX006 (oral), vehicle: saline) was 106 % of control, the T/C (dose: 0.48 mg/kg/injection, schedule: Q01DX Z (ip), vehicle: alkali diluted with saline) was 97 % of control and the T/C (dose: 0.5 mg/kg/injection, schedule: Q01DX Z (ip), vehicle: saline) was 185 % of control and 201 % of control. For the same molecule, the T/C (dose: 0.5 mg/kg/injection, schedule: Q01DX Z (oral), vehicle: carboxymethylcellulose (CMC)) was 100 % of control, the T/C (dose: 0.75 mg/kg/injection, schedule: Q03DX005 (oral), vehicle: saline) was 111 % of control and the T/C (dose: 0.75 mg/kg/injection, schedule: Q03DX006 (oral), vehicle: saline) was 109 % of control. For the same molecule, the T/C (dose: 0.9 mg/kg/injection, schedule: Q01DX001 (oral), vehicle: saline) was 103 % of control and 104 % of control and 108 % of control, the T/C (dose: 0.9 mg/kg/injection, schedule: Q07DX002 (oral), vehicle: saline) was 108 % of control and the T/C (dose: 0.9 mg/kg/injection, schedule: Q07DX003 (oral), vehicle: saline) was 101 % of control. The T/C (dose: 0.96 mg/kg/injection, schedule: Q01DX Z (ip), vehicle: alkali diluted with saline) was 103 % of control, the T/C (dose: 0.96 mg/kg/injection, schedule: Q01DX Z (ip), vehicle: other) was 194 % of control and the T/C (dose: 1.0 mg/kg/injection, schedule: Q01DX006 (iv), vehicle: saline) was 170 % of control. The T/C (dose: 1.0 mg/kg/injection, schedule: Q01DX Z (ip), vehicle: carboxymethylcellulose (CMC)) was 155 % of control, the T/C (dose: 1.0 mg/kg/injection, schedule: Q01DX Z (ip), vehicle: saline) was 164 % of control and 220 % of control and the T/C (dose: 1.0 mg/kg/injection, schedule: Q01DX Z (oral), vehicle: carboxymethylcellulose (CMC)) was 109 % of control. For the same molecule, the T/C (dose: 1.0 mg/kg/injection, schedule: Q01DX Z (oral), vehicle: saline) was 121 % of control, the T/C (dose: 1.0 mg/kg/injection, schedule: Q01DX Z (sc), vehicle: saline) was 161 % of control and the T/C (dose: 1.0 mg/kg/injection, schedule: Q#A X Z (oral), vehicle: saline) was 115 % of control. The T/C (dose: 1.25 mg/kg/injection, schedule: Q01DX Z (ip), vehicle: carboxymethylcellulose (CMC)) was 164 % of control, the T/C (dose: 1.5 mg/kg/injection, schedule: Q01DX Z (ip), vehicle: saline) was 163 % of control and the T/C (dose: 1.5 mg/kg/injection, schedule: Q03DX005 (oral), vehicle: saline) was 108 % of control. For the same molecule, the T/C (dose: 1.5 mg/kg/injection, schedule: Q03DX006 (oral), vehicle: saline) was 124 % of control and 91 % of control, the T/C (dose: 1.75 mg/kg/injection, schedule: Q01DX001 (oral), vehicle: saline) was 104 % of control and 111 % of control and 117 % of control and the T/C (dose: 1.75 mg/kg/injection, schedule: Q07DX002 (oral), vehicle: saline) was 108 % of control. For the same molecule, the T/C (dose: 1.75 mg/kg/injection, schedule: Q07DX003 (oral), vehicle: saline) was 117 % of control, the T/C (dose: 1.9 mg/kg/injection, schedule: Q01DX Z (ip), vehicle: alkali diluted with saline) was 101 % of control and the T/C (dose: 1.9 mg/kg/injection, schedule: Q01DX Z (ip), vehicle: other) was 122 % of control. For the same molecule, the T/C (dose: 2.0 mg/kg/injection, schedule: Q01DX006 (iv), vehicle: saline) was 168 % of control and 174 % of control, the T/C (dose: 2.0 mg/kg/injection, schedule: Q01DX Z (im), vehicle: saline) was 113 % of control and the T/C (dose: 2.0 mg/kg/injection, schedule: Q01DX Z (ip), vehicle: saline) was 116 % of control and 117 % of control. For the same molecule, the T/C (dose: 2.0 mg/kg/injection, schedule: Q01DX Z (oral), vehicle: saline) was 118 % of control, the T/C (dose: 2.2 mg/kg/injection, schedule: Q01DX Z (ip), vehicle: carboxymethylcellulose (CMC)) was 103 % of control and 114 % of control and the T/C (dose: 2.5 mg/kg/injection, schedule: Q01DX Z (ip), vehicle: carboxymethylcellulose (CMC)) was 117 % of control. The T/C (dose: 3.0 mg/kg/injection, schedule: Q01DX Z (ip), vehicle: saline) was 106 % of control, the T/C (dose: 3.0 mg/kg/injection, schedule: Q03DX006 (oral), vehicle: saline) was 94 % of control and 114 % of control and the T/C (dose: 3.3 mg/kg/injection, schedule: Q01DX Z (ip), vehicle: carboxymethylcellulose (CMC)) was 101 % of control and 90 % of control. The T/C (dose: 3.5 mg/kg/injection, schedule: Q01DX001 (oral), vehicle: saline) was 101 % of control and 105 % of control and 106 % of control, the T/C (dose: 3.5 mg/kg/injection, schedule: Q07DX002 (oral), vehicle: saline) was 97 % of control and the T/C (dose: 3.5 mg/kg/injection, schedule: Q07DX003 (oral), vehicle: saline) was 109 % of control. For the same molecule, the T/C (dose: 4.0 mg/kg/injection, schedule: Q01DX006 (iv), vehicle: saline) was 88 % of control, the T/C (dose: 4.0 mg/kg/injection, schedule: Q01DX Z (sc), vehicle: saline) was 96 % of control and the T/C (dose: 4.9 mg/kg/injection, schedule: Q01DX Z (ip), vehicle: carboxymethylcellulose (CMC)) was 90 % of control. For the same molecule, the T/C (dose: 6.0 mg/kg/injection, schedule: Q03DX005 (oral), vehicle: saline) was 103 % of control, the T/C (dose: 6.0 mg/kg/injection, schedule: Q03DX006 (oral), vehicle: saline) was 124 % of control and the T/C (dose: 7.0 mg/kg/injection, schedule: Q01DX001 (oral), vehicle: saline) was 106 % of control and 120 % of control. For the same molecule, the T/C (dose: 7.0 mg/kg/injection, schedule: Q07DX003 (oral), vehicle: saline) was 117 % of control, the T/C (dose: 8.0 mg/kg/injection, schedule: Q01DX Z (oral), vehicle: saline) was 156 % of control and 175 % of control and the T/C (dose: 8.0 mg/kg/injection, schedule: Q#A X Z (oral), vehicle: saline) was 152 % of control. For the same molecule, the T/C (dose: 16.0 mg/kg/injection, schedule: Q01DX Z (oral), vehicle: saline) was 122 % of control, the T/C (dose: 28.0 mg/kg/injection, schedule: Q07DX003 (oral), vehicle: saline) was 153 % of control and the T/C (dose: 32.0 mg/kg/injection, schedule: Q01DX Z (oral), vehicle: saline) was 95 % of control. For the same molecule, the T/C (dose: 112.0 mg/kg/injection, schedule: Q07DX003 (oral), vehicle: saline) was 111 % of control, the T/C (dose: 224.0 mg/kg/injection, schedule: Q01DX001 (oral), vehicle: saline) was 120 % of control and the T/C (dose: 448.0 mg/kg/injection, schedule: Q01DX001 (oral), vehicle: saline) was 108 % of control. For the same molecule, the T/C (dose: 600.0 mg/kg/injection, schedule: Q01DX001 (oral), vehicle: saline) was 107 % of control, the T/C (dose: 800.0 mg/kg/injection, schedule: Q01DX001 (oral), vehicle: saline) was 113 % of control and the T/C (dose: 1000.0 mg/kg/injection, schedule: Q01DX001 (oral), vehicle: saline) was 110 % of control.
`O/N=C/c1ccc(Cc2ccccc2)o1` was tested, and the T/C (dose: 75.0 mg/kg/injection, schedule: Q01DX001 (ip), vehicle: carboxymethylcellulose (CMC)) was 97 % of control, the T/C (dose: 150.0 mg/kg/injection, schedule: Q01DX001 (ip), vehicle: carboxymethylcellulose (CMC)) was 100 % of control and the T/C (dose: 300.0 mg/kg/injection, schedule: Q01DX001 (ip), vehicle: carboxymethylcellulose (CMC)) was 96 % of control.
